Read-outs that look alike come from different tables or passages of the source.
How the values were obtained:
[1] = target: α9α10^α9Nt–TM2TM3loop (Rattus norvegicus, UniProt P43144+Q9JLB5); format: cell-based; conditions: for ACh response, % of response at […] Ca^2+: Vhold -90
[2] = target: α9α10E71Q (Rattus norvegicus, UniProt P43144+Q9JLB5, E71Q); format: cell-based
[3] = target: α9α10^α9Nt–TM1TM2loop (Rattus norvegicus, UniProt P43144+Q9JLB5, A103S/A128E/A130V/A141L/A146S/A160Y/A165S/A191G/A194S/A236S/A237S/A238F/A257S/A39E/A49E/A97Q/C241V/D100R/D263A/E60Q/E85T/F249L/G169N/G178N/G188L/G99D/H138Y/H177Y/H180N/H259Y/H92T/I67K/K96D/L182V/L205H/L214I/L245I/L252F/L78A/N199D/N40D/P126S/P127S/P186N/P95R/Q125E/Q53A/R109D/R143T/R151K/R155V/R167Q/R185F/R187A/R203E/R210V/R211K/R212N/R233K/R35S/S129P/S131N/S159T/S192D/T124D/T189D/T215S/T42S/T54V/T87H/V136L/V142I/V184I/V197I/V240I/V75I); format: cell-based; conditions: 40 µM ACh; for ACh response, % of response at […] Ca^2+: Vhold -90
[4] = target: α9α10^α9TM2TM3loop (Rattus norvegicus, UniProt P43144+Q9JLB5, A292S/P291A/S288I/S294N); format: cell-based; conditions: for ACh response, % of response at […] Ca^2+: Vhold -90
[5] = target: α9α10^α9Nt (Rattus norvegicus, UniProt P43144+Q9JLB5, A103S/A128E/A130V/A141L/A146S/A160Y/A165S/A191G/A194S/A39E/A49E/A97Q/D100R/E60Q/E85T/G169N/G178N/G188L/G99D/H138Y/H177Y/H180N/H92T/I67K/K96D/L182V/L205H/L214I/L78A/N199D/N40D/P126S/P127S/P186N/P95R/Q125E/Q53A/R109D/R143T/R151K/R155V/R167Q/R185F/R187A/R203E/R210V/R211K/R212N/R233K/R35S/S129P/S131N/S159T/S192D/T124D/T189D/T215S/T42S/T54V/T87H/V136L/V142I/V184I/V197I/V75I); format: cell-based; conditions: 10 µM ACh; for ACh response, % of response at […] Ca^2+: Vhold -90
[6] = target: α9α10E201Q (Rattus norvegicus, UniProt P43144+Q9JLB5, E201Q); format: cell-based
[7] = target: α9α10E287Q (Rattus norvegicus, UniProt P43144+Q9JLB5, E287Q); format: cell-based
[8] = target: α9α10 nAChR (Rattus norvegicus, UniProt P43144+Q9JLB5); format: cell-based; conditions: 10 µM ACh; for ACh response, % of responses at […] Ca^2+: Vhold -90
[9] = system: homomeric α9 nAChR; conditions: cited from earlier work
[10] = target: α9α10^α9Nt–TM2 (Rattus norvegicus, UniProt P43144+Q9JLB5, A103S/A128E/A130V/A141L/A146S/A160Y/A165S/A191G/A194S/A236S/A237S/A238F/A257S/A39E/A49E/A97Q/C241V/D100R/D263A/E60Q/E85T/F249L/G169N/G178N/G188L/G99D/H138Y/H177Y/H180N/H259Y/H92T/I284M/I67K/K96D/L182V/L205H/L214I/L245I/L252F/L278M/L285V/L78A/N199D/N40D/P126S/P127S/P186N/P95R/Q125E/Q53A/R109D/R143T/R151K/R155V/R167Q/R185F/R187A/R203E/R210V/R211K/R212N/R233K/R35S/S129P/S131N/S159T/S192D/T124D/T189D/T215S/T42S/T54V/T87H/V136L/V142I/V184I/V197I/V240I/V274I/V75I); format: cell-based; conditions: 30 µM ACh; for ACh response, % of response at […] Ca^2+: Vhold -90
[11] = target: α9α10^α9extra (Rattus norvegicus, UniProt P43144+Q9JLB5, A264D/A308T/A312F/A328P/E329N/F253L/F325Y/H335A/I246L/I275V/I304M/I310V/I323L/L250F/L309M/M279L/M285I/M319L/R331H/S258A/V286L/V320I/Y260H); format: cell-based; conditions: for ACh response, % of response at […] Ca^2+: Vhold -90
[12] = read-out: Ca^2+ IC50, block of responses to 100 µM ACh

ACh response, % of response at […] Ca^2+ ([1]; 3 mM Ca^2+, 5 µM ACh): 108.1 ± 10.7%
3 / 0 Ca^2+ ratio of response ([1]; +40 mV, 5 µM ACh): 1.2 ± 0.3
3 / 0 Ca^2+ ratio of response ([1]; -90 mV, 5 µM ACh): 0.20 ± 0.03
IC50 ([1]; read-out: Ca^2+ IC50, block of responses to 5 µM ACh, -90 mV): 500 ± 100 µM
ACh response, % of response at […] Ca^2+ ([1]; zero Ca^2+, 5 µM ACh): 611.3 ± 91.2%
modulation of ACh-evoked responses by extracellular Ca^2+ (in words) ([2]; 100 µM ACh): not potentiated by Ca^2+
ACh response, % of response at […] Ca^2+ ([2]; 3 mM Ca^2+, 100 µM ACh): 64.8 ± 2.7%
3 / 0 Ca^2+ ratio of response ([2]; +40 mV, 100 µM ACh): 1.05 ± 0.29
3 / 0 Ca^2+ ratio of response ([2]; -90 mV, 100 µM ACh): 0.25 ± 0.05
IC50 [2, 12]: 800 ± 100 µM
ACh response, % of response at […] Ca^2+ ([2]; zero Ca^2+, 100 µM ACh): 211.0 ± 35.6%
ACh response, % of response at […] Ca^2+ ([3]; 0.2 mM Ca^2+): 358.3 ± 32.4%
ACh response, % of response at […] Ca^2+ ([3]; 3 mM Ca^2+): 73.5 ± 9.3%
0.2 / 0 Ca^2+ ratio of response amplitudes ([3]; +40 mV): 5.9 ± 2.6
0.2 / 0 Ca^2+ ratio of response amplitudes ([3]; -90 mV): 5.4 ± 2.4
ACh response, % of response at […] Ca^2+ ([3]; nominally zero Ca^2+): 95.2 ± 18.8%
ACh response, % of response at […] Ca^2+ ([4]; 3 mM Ca^2+, 50 µM ACh): 71.3 ± 5.2%
ACh response, % of response at […] Ca^2+ ([4]; 3 mM Ca^2+, sub-EC50 25 µM ACh): 46.3 ± 20.9%
3 / 0 Ca^2+ ratio of response ([4]; +40 mV, 50 µM ACh): 0.74 ± 0.14
3 / 0 Ca^2+ ratio of response ([4]; -90 mV, 50 µM ACh): 0.14 ± 0.02
ACh response, % of response at […] Ca^2+ ([4]; zero Ca^2+, 50 µM ACh): 401.0 ± 103.4%
ACh response, % of response at […] Ca^2+ ([4]; zero Ca^2+, sub-EC50 25 µM ACh): 668.7 ± 340.2%
ACh response, % of response at […] Ca^2+ ([5]; 0.2 mM Ca^2+): 225.8 ± 18.9%
ACh response, % of response at […] Ca^2+ ([5]; 3 mM Ca^2+): 64.9 ± 5.9%
0.2 / 0 Ca^2+ ratio of response amplitudes ([5]; +40 mV): 2.5 ± 0.3
0.2 / 0 Ca^2+ ratio of response amplitudes ([5]; -90 mV): 2.1 ± 0.4
ACh response, % of response at […] Ca^2+ ([5]; nominally zero Ca^2+): 115.2 ± 27.3%
modulation of ACh-evoked responses by extracellular Ca^2+ (in words) ([6]; 100 µM ACh): not potentiated by Ca^2+
ACh response, % of response at […] Ca^2+ ([6]; 3 mM Ca^2+, 100 µM ACh): 74.3 ± 11.2%
3 / 0 Ca^2+ ratio of response ([6]; +40 mV, 100 µM ACh): 0.53 ± 0.12
3 / 0 Ca^2+ ratio of response ([6]; -90 mV, 100 µM ACh): 0.18 ± 0.05
IC50 [6, 12]: 900 ± 300 µM
ACh response, % of response at […] Ca^2+ ([6]; zero Ca^2+, 100 µM ACh): 201.6 ± 39.7%
modulation of ACh-evoked responses by extracellular Ca^2+ (in words) ([7]; 20 µM ACh): not potentiated by Ca^2+
ACh response, % of response at […] Ca^2+ ([7]; 3 mM Ca^2+, 20 µM ACh): 67.6 ± 5.6%
3 / 0 Ca^2+ ratio of response ([7]; +40 mV, 20 µM ACh): 0.48 ± 0.04
3 / 0 Ca^2+ ratio of response ([7]; -90 mV, 20 µM ACh): 0.26 ± 0.02
IC50 ([7]; read-out: Ca^2+ IC50, block of responses to 20 µM ACh): 300 ± 100 µM
ACh response, % of response at […] Ca^2+ ([7]; zero Ca^2+, 20 µM ACh): 320.7 ± 97.4%
ACh response, % of responses at […] Ca^2+ ([8]; 0.5 mM Ca^2+ (maximum)): 142.98 ± 10.12%
ACh response, % of responses at […] Ca^2+ ([8]; nominally zero Ca^2+): 16.79 ± 6.47%
ACh response, % of response at […] Ca^2+ ([10]; 0.2 mM Ca^2+): 322.0 ± 40.0%
ACh response, % of response at […] Ca^2+ ([10]; 3 mM Ca^2+): 69.5 ± 7.6%
0.2 / 0 Ca^2+ ratio of response amplitudes ([10]; +40 mV): 2.8 ± 0.4
0.2 / 0 Ca^2+ ratio of response amplitudes ([10]; -90 mV): 4.1 ± 0.2
ACh response, % of response at […] Ca^2+ ([10]; nominally zero Ca^2+): 132.4 ± 27.5%
ACh response, % of response at […] Ca^2+ ([11]; 3 mM Ca^2+, 10 µM ACh): 72.3 ± 5.3%
3 / 0 Ca^2+ ratio of response ([11]; +40 mV, 10 µM ACh): 0.60 ± 0.08
3 / 0 Ca^2+ ratio of response ([11]; -90 mV, 10 µM ACh): 0.20 ± 0.05
IC50 ([11]; read-out: Ca^2+ IC50, block of responses to 10 µM ACh, -90 mV): 700 ± 200 µM
ACh response, % of response at […] Ca^2+ ([11]; zero Ca^2+, 10 µM ACh): 217.3 ± 6.3%
Structure (SMILES): [Ca+2] [Ca^2+, Calcium]
modulation of ACh-evoked responses by extracellular Ca^2+ (in words) ([1]; 5 µM ACh): only blocked by increasing Ca^2+ concentrations
modulation of ACh-evoked responses by extracellular Ca^2+ (in words) [3]: potentiated by Ca^2+ up to 0.2 mM and blocked by higher concentrations
modulation of ACh-evoked responses by extracellular Ca^2+ (in words) ([4]; 50 µM ACh): not potentiated by extracellular Ca^2+, but instead blocked by this ion
modulation of ACh-evoked responses by extracellular Ca^2+ (in words) [5]: potentiated by Ca^2+ up to 0.2 mM and blocked by higher concentrations
modulation of ACh-evoked responses by extracellular Ca^2+ (in words) [8]: potentiated by sub-millimolar Ca^2+ concentrations
ACh response amplitude normalized to 0 mM Ca^2+ (Imax) ([9]; […] Ca^2+, 100 µM ACh, Vhold -70, homomeric α9): 5.63 ± 0.58%
modulation of ACh-evoked responses by extracellular Ca^2+ (in words) ([9]; rat α9 nAChRs): only blocked by this ion
IC50 ([9]; read-out: Ca^2+ IC50 (50% of response block), homomeric α9, -70 mV): 100 ± 10 µM
modulation of ACh-evoked responses by extracellular Ca^2+ (in words) [10]: potentiated by Ca^2+ up to 0.2 mM and blocked by higher concentrations
modulation of ACh-evoked responses by extracellular Ca^2+ (in words) ([11]; 10 µM ACh): not potentiated by Ca^2+, and only blocked by increasing Ca^2+ concentrations

— PMC11335262 (Cellular and Molecular Life Sciences: CMLS, 2024)
